Experimental data: the NIST ThermoML archive (doi:10.1007/s10765-010-0766-0)

Settings: Liquid, Pycnometric method

FC(F)C(F)(F)OCC(F)(F)F [2,2,2-trifluoroethyl 1,1,2,2-tetrafluoroethyl ether]
Settings | mass density [kg/m3]
279.15 K, 5663 kPa | 1535.2
280.15 K, 6663 kPa | 1534.9
280.15 K, 6673 kPa | 1534.9
281.15 K, 7673 kPa | 1534.6
281.15 K, 7685 kPa | 1534.7
282.15 K, 8685 kPa | 1534.4
282.15 K, 8696 kPa | 1534.5
283.15 K, 9695 kPa | 1534.2
283.15 K, 9705 kPa | 1534.3
284.15 K, 10704 kPa | 1534
284.15 K, 10712 kPa | 1534
285.15 K, 11710 kPa | 1533.8
285.15 K, 11717 kPa | 1533.8
286.15 K, 12714 kPa | 1533.6
286.15 K, 12720 kPa | 1533.6
287.15 K, 13718 kPa | 1533.4
287.15 K, 13722 kPa | 1533.4
288.15 K, 14719 kPa | 1533.2
288.15 K, 14722 kPa | 1533.2
289.15 K, 15719 kPa | 1533
289.15 K, 15720 kPa | 1533
290.15 K, 16716 kPa | 1532.8
290.15 K, 16717 kPa | 1532.8
291.15 K, 17711 kPa | 1532.6
291.15 K, 17712 kPa | 1532.6
292.15 K, 18703 kPa | 1532.5
292.15 K, 18704 kPa | 1532.4
293.15 K, 19694 kPa | 1532.3
294.15 K, 20683 kPa | 1532.1
295.15 K, 21669 kPa | 1531.9
296.15 K, 22653 kPa | 1531.8
296.15 K, 22654 kPa | 1531.8
297.15 K, 23636 kPa | 1531.6
298.15 K, 24616 kPa | 1531.4
298.15 K, 24617 kPa | 1531.4
299.15 K, 25595 kPa | 1531.3
299.15 K, 25596 kPa | 1531.3
300.15 K, 26572 kPa | 1531.1
300.15 K, 26573 kPa | 1531.1
301.15 K, 6294 kPa | 1484.4
301.15 K, 27548 kPa | 1531
302.15 K, 7147 kPa | 1484.2
302.15 K, 28521 kPa | 1530.9
302.15 K, 28522 kPa | 1530.9
303.15 K, 8010 kPa | 1484
303.15 K, 8015 kPa | 1484
303.15 K, 29493 kPa | 1530.7
304.15 K, 8873 kPa | 1483.8
304.15 K, 8874 kPa | 1483.8
305.15 K, 9734 kPa | 1483.6
306.15 K, 10592 kPa | 1483.4
306.15 K, 10594 kPa | 1483.4
307.15 K, 11449 kPa | 1483.2
307.15 K, 11452 kPa | 1483.2
308.15 K, 12303 kPa | 1483
308.15 K, 12308 kPa | 1483.1
309.15 K, 13157 kPa | 1482.8
309.15 K, 13163 kPa | 1482.9
310.15 K, 14009 kPa | 1482.7
310.15 K, 14016 kPa | 1482.7
311.15 K, 14859 kPa | 1482.5
311.15 K, 14867 kPa | 1482.5
312.15 K, 15708 kPa | 1482.3
312.15 K, 15718 kPa | 1482.4
313.15 K, 16557 kPa | 1482.1
313.15 K, 16566 kPa | 1482.2
314.15 K, 17405 kPa | 1482
314.15 K, 17414 kPa | 1482
315.15 K, 18252 kPa | 1481.8
315.15 K, 18260 kPa | 1481.8
316.15 K, 19097 kPa | 1481.7
316.15 K, 19105 kPa | 1481.7
317.15 K, 19942 kPa | 1481.5
317.15 K, 19949 kPa | 1481.5
318.15 K, 20785 kPa | 1481.4
318.15 K, 20791 kPa | 1481.4
319.15 K, 21626 kPa | 1481.2
319.15 K, 21632 kPa | 1481.2
320.15 K, 22467 kPa | 1481.1
320.15 K, 22471 kPa | 1481.1
321.15 K, 23306 kPa | 1480.9
321.15 K, 23311 kPa | 1480.9
322.15 K, 24144 kPa | 1480.8
322.15 K, 24148 kPa | 1480.8
323.15 K, 24980 kPa | 1480.6
323.15 K, 24983 kPa | 1480.6
324.15 K, 25816 kPa | 1480.5
324.15 K, 25819 kPa | 1480.5
325.15 K, 26650 kPa | 1480.4
325.15 K, 26653 kPa | 1480.4
326.15 K, 27482 kPa | 1480.2
326.15 K, 27484 kPa | 1480.2
327.15 K, 28313 kPa | 1480.1
327.15 K, 28315 kPa | 1480.1
328.15 K, 29144 kPa | 1480
328.15 K, 29145 kPa | 1480
329.15 K, 7678 kPa | 1420.3
329.15 K, 7689 kPa | 1420.3
329.15 K, 29973 kPa | 1479.9
329.15 K, 29975 kPa | 1479.9
330.15 K, 8385 kPa | 1420.1
330.15 K, 8394 kPa | 1420.1
331.15 K, 9091 kPa | 1420
331.15 K, 9099 kPa | 1419.9
332.15 K, 9796 kPa | 1419.8
332.15 K, 9803 kPa | 1419.8
333.15 K, 10500 kPa | 1419.6
333.15 K, 10506 kPa | 1419.6
334.15 K, 11204 kPa | 1419.5
334.15 K, 11209 kPa | 1419.5
335.15 K, 11908 kPa | 1419.3
335.15 K, 11912 kPa | 1419.3
336.15 K, 12610 kPa | 1419.2
336.15 K, 12614 kPa | 1419.1
337.15 K, 13313 kPa | 1419
337.15 K, 13315 kPa | 1419
338.15 K, 14014 kPa | 1418.8
338.15 K, 14016 kPa | 1418.8
339.15 K, 14714 kPa | 1418.7
339.15 K, 14716 kPa | 1418.7
340.15 K, 15413 kPa | 1418.5
340.15 K, 15416 kPa | 1418.5
341.15 K, 16111 kPa | 1418.4
341.15 K, 16114 kPa | 1418.4
